In this assay the target is T1, human M1 receptor (hCHRM1) (Homo sapiens, UniProt P11229).
T1 construct: expressed in transfected cells
T1 sequence (P11229 1-460): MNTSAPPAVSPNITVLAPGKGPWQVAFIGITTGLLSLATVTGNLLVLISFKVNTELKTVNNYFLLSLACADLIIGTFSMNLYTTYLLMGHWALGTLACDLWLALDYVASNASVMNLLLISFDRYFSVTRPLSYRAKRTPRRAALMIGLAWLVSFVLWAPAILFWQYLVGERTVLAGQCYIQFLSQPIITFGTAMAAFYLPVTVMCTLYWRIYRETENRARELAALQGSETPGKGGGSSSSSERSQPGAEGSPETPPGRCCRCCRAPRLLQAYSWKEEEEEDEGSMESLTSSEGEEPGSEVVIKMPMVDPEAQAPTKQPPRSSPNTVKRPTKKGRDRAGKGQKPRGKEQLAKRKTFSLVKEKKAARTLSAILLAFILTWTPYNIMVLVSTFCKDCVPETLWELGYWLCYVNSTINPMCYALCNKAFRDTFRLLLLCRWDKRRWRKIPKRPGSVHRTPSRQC
In words: Measurement of M1 receptor positive allosteric modulator (M1PAM) activity, calcium fluorescence (FLIPRtetra) with acetylcholine at EC20. Type of assay: cell-based. The conditions noted are these: for activity (%) at 10 μM: 10 μM test compound, 100% = acetylcholine 1 μM, 0% = DMSO, acetylcholine at EC20; for pEC50: inflection point of concentration-dependent curve, CHO-K1 cells expressing hCHRM1, acetylcholine at EC20 (final 0.6-0.8 nM), read-out: IP value. In outline: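 CHO-K1 cells stably expressing hCHRM1, Fluo-4 AM loaded; compound added with acetylcholine at EC20 (final 0.6-0.8 nM), fluorescence read 1 min. Activity normalised to 1 μM acetylcholine (100%) and DMSO (0%); IP values taken as inflection point of the concentration-response curve.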

The structures appear in SMILES notation. pEC50: −log10 of the molar value.

Consider 26 compounds from patent US9315458B2, “Nitrogen-containing heterocyclic compound” (Takeda Pharmaceutical Company Limited, priority 2014, dated 2016).

As for `Cc1c(Cc2ccc(-c3ccn(C)n3)cc2)cc2c(c1C)CN(CC1CCCO1)C2=O` (stereo not shown) [Example 85, 4,5-dimethyl-6-(4-(1-methyl-1H-pyrazol-3-yl)benzyl)-2-(tetrahydrofuran-2-ylmethyl)isoindolin-1-one], the “activity (%) at 10 μM” value was 105% and the pEC50 is 7.39.
For `Cc1c(Cc2ccc(-c3cn(C)nn3)cc2F)cc2c(c1C)CN(CC1CCCO1)C2=O` (stereo not shown) [Example 103, 6-(2-fluoro-4-(1-methyl-1H-1,2,3-triazol-4-yl)benzyl)-4,5-dimethyl-2-(tetrahydrofuran-2-ylmethyl)isoindolin-1-one], in that order: 94% and 8.22.
For `Cc1cc2c(cc1Cc1ccc(-n3cccn3)cc1)C(=O)N(CC(C)(C)O)C2` [Example 104, 2-(2-hydroxy-2-methylpropyl)-5-methyl-6-(4-(1H-pyrazol-1-yl)benzyl)isoindolin-1-one], in that order: 101% and 7.27.
For `CCc1cc2c(cc1Cc1ccc(-c3cn(C)nn3)cc1)C(=O)N(CC1CCCO1)C2` (stereo not shown) [Example 105, 5-ethyl-6-(4-(1-methyl-1H-1,2,3-triazol-4-yl)benzyl)-2-(tetrahydrofuran-2-ylmethyl)isoindolin-1-one], in that order: 92% and 8.00.
Turning to `Cc1c(Cc2ccc(-n3cccn3)cc2)cc2c(c1F)CN([C@H]1CCC[C@@H]1O)C2=O` [Example 107, 4-fluoro-2-((1S,2S)-2-hydroxycyclopentyl)-5-methyl-6-(4-(1H-pyrazol-1-yl)benzyl)isoindolin-1-one], the “activity (%) at 10 μM” value was determined as 102% and the pEC50 is 7.85.
For `Cc1c(Cc2ccc(-c3ccn(C)n3)cc2)cc2c(c1C)CN(C[C@@H]1CCCO1)C2=O` [Example 109, 4,5-dimethyl-6-(4-(1-methyl-1H-pyrazol-3-yl)benzyl)-2-((2S)-tetrahydrofuran-2-ylmethyl)isoindolin-1-one], in that order: 100% and 7.64.
On to `Cc1c(Cc2ccc(-c3cn(C)nn3)cc2)cc2c(c1C)CN(C[C@H]1CCCO1)C2=O` [Example 110, 4,5-dimethyl-6-(4-(1-methyl-1H-1,2,3-triazol-4-yl)benzyl)-2-((2R)-tetrahydrofuran-2-ylmethyl)isoindolin-1-one], for which the “activity (%) at 10 μM” value came out at 77% and the pEC50 is 7.62.
On the same counts, the results for `Cc1c(Cc2ccc(-c3ccn(C)n3)cc2)cc2c(c1F)CN([C@H]1CCC[C@@H]1O)C2=O` [Example 111, 4-fluoro-2-((1S,2S)-2-hydroxycyclopentyl)-5-methyl-6-(4-(1-methyl-1H-pyrazol-3-yl)benzyl)isoindolin-1-one] are 103% and 7.59.
For `Cc1c(Cc2ccc(-c3ccn(C)n3)cc2)cc2c(c1C)CN(CC(C)(C)O)C2=O` [Example 114, 2-(2-hydroxy-2-methylpropyl)-4,5-dimethyl-6-(4-(1-methyl-1H-pyrazol-3-yl)benzyl)isoindolin-1-one], in that order: 96% and 7.82.
For `Cc1c(Cc2ccc(-n3cccn3)cc2F)cc2c(c1C)CN(C[C@@H]1CCCO1)C2=O` [Example 115, 6-(2-fluoro-4-(1H-pyrazol-1-yl)benzyl)-4,5-dimethyl-2-((2S)-tetrahydrofuran-2-ylmethyl)isoindolin-2-one], in that order: 92% and 7.60.
With `CCc1cc2c(cc1Cc1ccc(-c3ccn(C)n3)cc1)C(=O)N([C@H]1COCC[C@@H]1O)C2` [Example 116, 5-ethyl-2-[(3S,4S)-4-hydroxytetrahydro-2H-pyran-3-yl]-6-[4-(1-methyl-1H-pyrazol-3-yl)benzyl]-2,3-dihydro-1H-isoindol-1-one], the “activity (%) at 10 μM” value turned out to be 111% and the pEC50 was 8.21.
On the same counts, the results for `CCc1cc2c(cc1Cc1ccc(-c3cn(C)nn3)cc1)C(=O)N(CC(C)(C)O)C2` [Example 118, 5-ethyl-2-(2-hydroxy-2-methylpropyl)-6-(4-(1-methyl-1H-1,2,3-triazol-4-yl)benzyl)isoindolin-1-one] are 106% and 7.60.
On the same counts, the results for `CCc1cc2c(cc1Cc1ccc(-c3cn(C)nn3)cc1)C(=O)N([C@H]1CCC[C@@H]1O)C2` [Example 119, 5-ethyl-2-((1S,2S)-2-hydroxycyclopentyl)-6-(4-(1-methyl-1H-1,2,3-triazol-4-yl)benzyl)isoindolin-1-one] are 91% and 8.51.
On the same counts, the results for `CCc1cc2c(cc1Cc1ccc(-c3ccn(C)n3)cc1)C(=O)N([C@H]1CCC[C@@H]1O)C2` [Example 120, 5-ethyl-2-((1S,2S)-2-hydroxycyclopentyl)-6-(4-(1-methyl-1H-pyrazol-3-yl)benzyl)isoindolin-1-one] are 93% and 7.60.
For the compound `Cc1c(Cc2ccc(-n3cccn3)cc2F)cc2c(c1C)CN(CC(C)(C)O)C2=O` [Example 121, 6-(2-fluoro-4-(1H-pyrazol-1-yl)benzyl)-2-(2-hydroxy-2-methylpropyl)-4,5-dimethylisoindolin-1-one], the “activity (%) at 10 μM” value is given as 89% and the pEC50 was 7.66.
For `CNC(=O)c1ccc(Cc2cc3c(c(C)c2C)CN([C@H]2CCC[C@@H]2O)C3=O)cc1F` [Example 123, 2-fluoro-4-((2-((1S,2S)-2-hydroxycyclopentyl)-6,7-dimethyl-3-oxo-2,3-dihydro-1H-isoindol-5-yl)methyl)-N-methylbenzamide], in that order: 90% and 8.68.
With `Cc1c(Cc2ccc(C#N)cc2F)cc2c(c1C)CN([C@H]1COCC[C@@H]1O)C2=O` [Example 124, 3-fluoro-4-({2-[(3S,4S)-4-hydroxytetrahydro-2H-pyran-3-yl]-6,7-dimethyl-3-oxo-2,3-dihydro-1H-isoindol-5-yl}methyl)benzonitrile], the “activity (%) at 10 μM” value came out at 86% and the pEC50 was 7.80.
For `Cc1c(Cc2ccc(C#N)cc2F)cc2c(c1C)CN([C@H]1CCC[C@@H]1O)C2=O` [Example 125, 3-fluoro-4-((2-((1S,2S)-2-hydroxycyclopentyl)-6,7-dimethyl-3-oxo-2,3-dihydro-1H-isoindol-5-yl)benzyl)benzonitrile], in that order: 93% and 7.14.
For `Cc1c(Cc2ccc(-n3cccn3)cc2)cc2c(c1F)CN(CC(C)(C)O)C2=O` [Example 127, 4-fluoro-2-(2-hydroxy-2-methylpropyl)-5-methyl-6-(4-(1H-pyrazol-1-yl)benzyl)isoindolin-1-one], in that order: 104% and 7.23.
With `CCc1cc2c(cc1Cc1ccc(-n3cccn3)cc1)C(=O)N([C@H]1COCC[C@@H]1O)C2` [Example 128, 5-ethyl-2-[(3S,4S)-4-hydroxytetrahydro-2H-pyran-3-yl]-6-[4-(1H-pyrazol-1-yl)benzyl]-2,3-dihydro-1H-isoindol-1-one], the “activity (%) at 10 μM” value is 97% and the pEC50 is 8.30.
`CCc1cc2c(cc1Cc1ccc(-n3cccn3)cc1)C(=O)N(CC(C)(C)O)C2` [Example 129, 5-ethyl-2-(2-hydroxy-2-methylpropyl)-6-(4-(1H-pyrazol-1-yl)benzyl)isoindolin-1-one]: the “activity (%) at 10 μM” value was found to be 100% and the pEC50 was 7.28.
As for `Cc1c(Cc2ccc(-n3cccn3)cc2)cc2c(c1Cl)CN([C@H]1COCC[C@@H]1O)C2=O` [Example 130, 4-chloro-2-[(3S,4S)-4-hydroxytetrahydro-2H-pyran-3-yl]-5-methyl-6-[4-(1H-pyrazol-1-yl)benzyl]-2,3-dihydro-1H-isoindol-1-one], the “activity (%) at 10 μM” value turned out to be 94% and the pEC50 is 8.66.
On the same counts, the results for `Cc1c(Cc2ccc(-n3cccn3)cc2)cc2c(c1Cl)CN([C@H]1CCC[C@@H]1O)C2=O` [Example 131, 4-chloro-2-((1S,2S)-2-hydroxycyclopentyl)-5-methyl-6-(4-(1H-pyrazol-1-yl)benzyl)isoindolin-1-one] are 100% and 7.92.
As to `Cc1c(Cc2ccc(-n3cccn3)cc2)cc2c(c1Cl)CN(CC(C)(C)O)C2=O` [Example 132, 4-chloro-2-(2-hydroxy-2-methylpropyl)-5-methyl-6-(4-(1H-pyrazol-1-yl)benzyl)isoindolin-1-one], the “activity (%) at 10 μM” value was 87% and the pEC50 is 8.14.
On the same counts, the results for `Cc1cc2c(cc1Cc1ccc(-n3cccn3)cc1)C(=O)N(C(C)C(C)(C)O)C2` (stereo not shown) [Example 133, 2-(3-hydroxy-3-methylbutan-2-yl)-5-methyl-6-(4-(1H-pyrazol-1-yl)benzyl)isoindolin-1-one] are 87% and 7.46.
For `Cc1c(Cc2ccc(-n3cccn3)nc2)cc2c(c1C)CN(C[C@@H]1CCCO1)C2=O` [Example 136, 4,5-dimethyl-6-((6-(1H-pyrazol-1-yl)pyridin-3-yl)methyl)-2-((2S)-tetrahydrofuran-2-ylmethyl)isoindolin-1-one], in that order: 100% and 7.12.
